US20250223268A1, “4-Methylsulfonylbenzamide Compound, Preparation Method, Herbicidal Composition And Use” (Jiangsu Flag Chemical Industry Co., Ltd., priority 2022, published 2025)

What was measured:
Format in all cases: in vivo
[1] = tested on: Echinochloa crusgalli; assay: Greenhouse herbicidal activity and crop safety comparison (Test Example 2)
How it was run: (§1)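 Fresh weight inhibition, banded into grades A to E (E <20%), was rated 14-21 days after foliar spraying of 3-6 leaf plants, or 14-30 days after a soil spray applied 24 h post-sowing.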

[2] = tested on: Leptochloa chinensis; assay: as above
How it was run: as §1

[3] = tested on: Oryza sativa subsp. indica; assay: as above
How it was run: as §1

[4] = tested on: Oryza sativa subsp. japonica; assay: as above
How it was run: as §1

[5] = tested on: Cyperus iria; assay: Greenhouse herbicidal activity assay, post-emergence; details: Post-emergence test, rate 150 g a.i./hm^2, grade by fresh weight inhibition rate
How it was run: (§2)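 Weeds and crops grown in pots of nutrient soil in a growth chamber to the 3-6 leaf stage, then foliar-sprayed and air-dried. Fresh weight inhibition scored 14-21 days after treatment and graded A (≥80%) through E (<20%).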

[6] = tested on: Digitaria sanguinalis; assay: as above; details: Post-emergence test, rate 150 g a.i./hm^2, grade by fresh weight inhibition rate
How it was run: as §2

[7] = tested on: Echinochloa crusgalli; assay: as above; details: Post-emergence test, rate 150 g a.i./hm^2, grade by fresh weight inhibition rate
How it was run: as §2

[8] = tested on: Eclipta prostrata; assay: as above; details: Post-emergence test, rate 150 g a.i./hm^2, grade by fresh weight inhibition rate
How it was run: as §2

[9] = tested on: Leptochloa chinensis; assay: as above; details: Post-emergence test, rate 150 g a.i./hm^2, grade by fresh weight inhibition rate
How it was run: as §2

| SMILES | Echinochloa crusgalli, control efficacy grading (fresh weight inhibition rate) ([1]; Rate 250 g/ha) | Leptochloa chinensis, control efficacy grading (fresh weight inhibition rate) ([2]; Rate 250 g/ha) | Oryza sativa subsp. indica, grading of fresh weight inhibition rate (crop safety) ([3]; Rate 250 g/ha) | Oryza sativa subsp. japonica, grading of fresh weight inhibition rate (crop safety) ([4]; Rate 250 g/ha) | Control efficacy grade, Cyperus iria [5] | Control efficacy grade, Digitaria sanguinalis [6] | Control efficacy grade, Echinochloa crusgalli [7] | Control efficacy grade, Eclipta prostrata [8] | Control efficacy grade, Leptochloa chinensis [9] | Echinochloa crusgalli, control efficacy grading (fresh weight inhibition rate) ([1]; Rate 150 g/ha) | Leptochloa chinensis, control efficacy grading (fresh weight inhibition rate) ([2]; Rate 150 g/ha) | Oryza sativa subsp. indica, grading of fresh weight inhibition rate (crop safety) ([3]; Rate 150 g/ha) | Oryza sativa subsp. japonica, grading of fresh weight inhibition rate (crop safety) ([4]; Rate 150 g/ha) | inhibition at 150 g/ha ([1]; Echinochloa crus-galli, Rate 150 g/ha, read-out: Echinochloa crusgalli, control efficacy grading (fresh weight inhibition rate)) [%] | inhibition at 150 g/ha ([2]; Dinebra chinensis, Rate 150 g/ha, read-out: Leptochloa chinensis, control efficacy grading (fresh weight inhibition rate)) [%] | pest or weed control at 150 g/ha ([5]; Cyperus iria, read-out: Control efficacy grade, Cyperus iria) [%] | pest or weed control at 150 g/ha ([6]; Digitaria sanguinalis, read-out: Control efficacy grade, Digitaria sanguinalis) [%] | pest or weed control at 150 g/ha ([7]; Echinochloa crus-galli, read-out: Control efficacy grade, Echinochloa crusgalli) [%] | pest or weed control at 150 g/ha ([8]; Eclipta prostrata, read-out: Control efficacy grade, Eclipta prostrata) [%] | pest or weed control at 150 g/ha ([9]; Dinebra chinensis, read-out: Control efficacy grade, Leptochloa chinensis) [%] |
| --- | --- | --- | --- | --- | --- | --- | --- | --- | --- | --- | --- | --- | --- | --- | --- | --- | --- | --- | --- | --- |
| CCCCS(=O)(=O)c1c(S(C)(=O)=O)ccc(C(=O)Nc2nnc(C)o2)c1Cl [Compound 3-15] | A (Fresh weight inhibition rate≥80% to 100%) | A (Fresh weight inhibition rate≥80% to 100%) | E (Fresh weight inhibition rate<20%) | E (Fresh weight inhibition rate<20%) | B (Fresh weight inhibition rate≥260% to <80%) | B (Fresh weight inhibition rate≥260% to <80%) | B (Fresh weight inhibition rate≥260% to <80%) | A (Fresh weight inhibition rate≥80% to 100%) | B (Fresh weight inhibition rate≥260% to <80%) | – | – | – | – | – | – | – | – | – | – | – |
| Cc1nnc(NC(=O)c2ccc(S(C)(=O)=O)c(S(=O)(=O)Cc3ccccc3)c2Cl)o1 [Compound 3-71] | – | – | – | – | A (Fresh weight inhibition rate≥80% to 100%) | – | – | A (Fresh weight inhibition rate≥80% to 100%) | A (Fresh weight inhibition rate≥80% to 100%) | C (Fresh weight inhibition rate≥40% to <60%) | A (Fresh weight inhibition rate≥80% to 100%) | E (Fresh weight inhibition rate<20%) | E (Fresh weight inhibition rate<20%) | – | – | – | – | – | – | – |
| CCCS(=O)(=O)c1c(S(C)(=O)=O)ccc(C(=O)Nc2nnco2)c1Cl [Compound 3-271, 2-chloro-4-(methylsulfonyl)-N-(1,3,4-oxadiazol-2-yl)-3-(propylsulfonyl)benzamide] | – | – | – | – | – | – | – | – | – | – | – | E (Fresh weight inhibition rate<20%) | E (Fresh weight inhibition rate<20%) | 80 to 100 | 80 to 100 | 80 to 100 | 80 to 100 | 80 to 100 | 80 to 100 | 80 to 100 |
| Cc1nnc(NC(=O)c2ccc(S(C)(=O)=O)c(S(=O)(=O)CC(F)(F)F)c2Cl)o1 [Compound 3-101] | – | – | – | – | A (Fresh weight inhibition rate≥80% to 100%) | A (Fresh weight inhibition rate≥80% to 100%) | A (Fresh weight inhibition rate≥80% to 100%) | A (Fresh weight inhibition rate≥80% to 100%) | A (Fresh weight inhibition rate≥80% to 100%) | A (Fresh weight inhibition rate≥80% to 100%) | A (Fresh weight inhibition rate≥80% to 100%) | E (Fresh weight inhibition rate<20%) | E (Fresh weight inhibition rate<20%) | – | – | – | – | – | – | – |
| CS(=O)(=O)c1ccc(C(=O)Nc2nnc(C3CC3)o2)c(Cl)c1S(=O)(=O)C1CCC1 [Compound 3-660] | – | – | – | – | A (Fresh weight inhibition rate≥80% to 100%) | – | – | A (Fresh weight inhibition rate≥80% to 100%) | A (Fresh weight inhibition rate≥80% to 100%) | C (Fresh weight inhibition rate≥40% to <60%) | A (Fresh weight inhibition rate≥80% to 100%) | E (Fresh weight inhibition rate<20%) | E (Fresh weight inhibition rate<20%) | – | – | – | – | – | – | – |
| CS(=O)(=O)c1ccc(C(=O)Nc2nnc(C3CC3)o2)c(Cl)c1S(=O)(=O)CC1CC1 [Compound 3-650] | – | – | – | – | A (Fresh weight inhibition rate≥80% to 100%) | A (Fresh weight inhibition rate≥80% to 100%) | B (Fresh weight inhibition rate≥260% to <80%) | A (Fresh weight inhibition rate≥80% to 100%) | A (Fresh weight inhibition rate≥80% to 100%) | – | B (Fresh weight inhibition rate≥260% to <80%) | E (Fresh weight inhibition rate<20%) | E (Fresh weight inhibition rate<20%) | – | – | – | – | – | – | – |
| CC(C)c1nnc(NC(=O)c2ccc(S(C)(=O)=O)c(S(=O)(=O)CC3CC3)c2Cl)o1 [Compound 3-534] | – | – | – | – | A (Fresh weight inhibition rate≥80% to 100%) | B (Fresh weight inhibition rate≥260% to <80%) | B (Fresh weight inhibition rate≥260% to <80%) | A (Fresh weight inhibition rate≥80% to 100%) | B (Fresh weight inhibition rate≥260% to <80%) | – | A (Fresh weight inhibition rate≥80% to 100%) | E (Fresh weight inhibition rate<20%) | E (Fresh weight inhibition rate<20%) | – | – | – | – | – | – | – |
| CC(C)c1nnc(NC(=O)c2ccc(S(C)(=O)=O)c(S(=O)(=O)C3CC3)c2Cl)o1 [Compound 3-539] | – | – | – | – | B (Fresh weight inhibition rate≥260% to <80%) | B (Fresh weight inhibition rate≥260% to <80%) | B (Fresh weight inhibition rate≥260% to <80%) | – | A (Fresh weight inhibition rate≥80% to 100%) | – | A (Fresh weight inhibition rate≥80% to 100%) | E (Fresh weight inhibition rate<20%) | E (Fresh weight inhibition rate<20%) | – | – | – | – | – | – | – |
| Cc1nnc(NC(=O)c2ccc(S(C)(=O)=O)c(S(=O)(=O)C3CCCCC3)c2Cl)o1 [Compound 3-96] | – | – | – | – | A (Fresh weight inhibition rate≥80% to 100%) | – | – | A (Fresh weight inhibition rate≥80% to 100%) | A (Fresh weight inhibition rate≥80% to 100%) | C (Fresh weight inhibition rate≥40% to <60%) | A (Fresh weight inhibition rate≥80% to 100%) | E (Fresh weight inhibition rate<20%) | E (Fresh weight inhibition rate<20%) | – | – | – | – | – | – | – |
| Cc1nnc(NC(=O)c2ccc(S(C)(=O)=O)c(S(=O)(=O)CCC#N)c2Cl)o1 [Compound 3-201] | – | – | – | – | A (Fresh weight inhibition rate≥80% to 100%) | – | – | A (Fresh weight inhibition rate≥80% to 100%) | A (Fresh weight inhibition rate≥80% to 100%) | C (Fresh weight inhibition rate≥40% to <60%) | A (Fresh weight inhibition rate≥80% to 100%) | E (Fresh weight inhibition rate<20%) | E (Fresh weight inhibition rate<20%) | – | – | – | – | – | – | – |
| CCc1nnc(NC(=O)c2ccc(S(C)(=O)=O)c(S(=O)(=O)CC(F)(F)F)c2Cl)o1 [Compound 3-443] | – | – | – | – | A (Fresh weight inhibition rate≥80% to 100%) | – | – | A (Fresh weight inhibition rate≥80% to 100%) | A (Fresh weight inhibition rate≥80% to 100%) | C (Fresh weight inhibition rate≥40% to <60%) | A (Fresh weight inhibition rate≥80% to 100%) | E (Fresh weight inhibition rate<20%) | E (Fresh weight inhibition rate<20%) | – | – | – | – | – | – | – |
| C#CCS(=O)(=O)c1c(S(C)(=O)=O)ccc(C(=O)Nc2nnc(C)o2)c1Cl [Compound 3-151] | – | – | – | – | A (Fresh weight inhibition rate≥80% to 100%) | B (Fresh weight inhibition rate≥260% to <80%) | B (Fresh weight inhibition rate≥260% to <80%) | A (Fresh weight inhibition rate≥80% to 100%) | A (Fresh weight inhibition rate≥80% to 100%) | – | A (Fresh weight inhibition rate≥80% to 100%) | E (Fresh weight inhibition rate<20%) | E (Fresh weight inhibition rate<20%) | – | – | – | – | – | – | – |
